The text below walks through data of publication PMC6150346, “Disrupting VEGF–VEGFR1 Interaction: De Novo Designed Linear Helical Peptides to Mimic the VEGF13-25 Fragment” (Molecules : A Journal of Synthetic Chemistry and Natural …, 2017).

The target of assay [1] is T1, extracellular domain (ECD, D1–D7) of VEGFR1 (Homo sapiens, UniProt P17948).
T1 construct: VEGFR-1 D1-D7 (ECD domain)/Fc Chimera; purchased Bio-techne R&D, Abingdon, UK
The settings on record: cited from earlier work.

Assay [2] has as its target T1, extracellular domain (ECD, D1–D7) of VEGFR1. The experiment in a line: Chemiluminescent competition (displacement) assay: biotinylated VEGF165 (VEGF-A) vs peptide on coated VEGFR1. In kind it is binding. The settings on record: for % of Displacement, 100 μM: biotinylated VEGF-A (131 pM btVEGF165) displaced by 100 μM peptide on VEGFR1 ECD (D1–D7), PBS 1% DMSO, 3 h 37 °C; for % of Displacement, 100 μM / % of Displacement, 30 μM: chemiluminescence; for % of Displacement, 100 μM / % of Displacement, 30 μM / IC50: three experiments in triplicate; for % of Displacement, 30 μM + EDTA: biotinylated VEGF-A displaced by 30 μM peptide in the presence of EDTA on VEGFR1 ECD (D1–D7), to avoid false positives from metals or aggregation; for % of Displacement, 30 μM: biotinylated VEGF-A displaced by 30 μM peptide on VEGFR1 ECD (D1–D7); for IC50: dose–response displacement assay on VEGFR1, log(inhibitor) vs. response fit, GraphPad Prism, read-out: IC50 (95% Confident Interval), relative inhibitory concentration 50. On the procedure:
The binding studies were performed on VEGF isoform VEGF-A (VEGF165) that is the most commonly involved in pathological angiogenesis. Compounds were first evaluated for their ability to displace biotinylated VEGF-A at two different doses, 30 and 100 μM (Table 2). A chemiluminescent assay, relying on competition between tested compounds and biotinylated VEGF-A for binding to the extracellular domain of recombinant VEGFR1, was used.
As described by Muller Y. A. et al., the surface of white high-binding 96-well microplate (Corning Life Sciences, Amsterdam, The Netherlands) was coated with 100 μL of phosphate-buffered saline solution (PBS, pH 7.4) containing 200 ng/mL of VEGFR-1 D1-D7 (ECD domain)/Fc Chimera or 150 ng/mL of VEGFR1 D1-D3/Fc chimera (Bio-techne R&D, Abingdon, UK) and incubated at 4 °C overnight. After three washes with 250 μL of PBS 0.1%, (v/v) tween 20 (buffer A), the plate was blocked by 200 μL of PBS with 3% (w/v) of BSA and stirred at 37 °C for 2 h. The plate was washed three times with buffer A. Then, 100 μL of a solution containing 131 pM of btVEGF165 (Bio-techne, R&D, Abingdon, UK) and the tested compounds at various concentration diluted in PBS containing 1% DMSO were added in each well. After 3 h stirring at 37 °C, the plate was washed four times with buffer A and 100 μL of streptavidin-horseradish peroxidase (Amersham Biosciences, Little Chalfont, UK) diluted at 1:8000 in PBS containing 0.1% (v/v) Tween 20 and 0.3% (w/v) BSA were added per well. After 1 h of incubation at 37 °C under obscurity and stirring, the plate was washed five times with 250 μL of buffer A and 100 μL of SuperSignal West Pico chemiluminescent substrate (Pierce, Appleton, WI, USA) were added. The remaining bt-VEGF165 was detected by chemiluminescence, which was quantified. The percentages of btVEGF165 displacement were calculated by the following formula: percentage of displacement = 100 × [1 − (S − NS)/(MS − NS)], where S is the signal measured, NS is the nonspecific binding signal and MS is the maximum binding signal observed with btVEGF165 without compounds tested. […] Each experiment was performed three times in triplicate.

Where two headings read alike, the source gives them in different places.

T1 sequence (P17948 27-758 limits assumed): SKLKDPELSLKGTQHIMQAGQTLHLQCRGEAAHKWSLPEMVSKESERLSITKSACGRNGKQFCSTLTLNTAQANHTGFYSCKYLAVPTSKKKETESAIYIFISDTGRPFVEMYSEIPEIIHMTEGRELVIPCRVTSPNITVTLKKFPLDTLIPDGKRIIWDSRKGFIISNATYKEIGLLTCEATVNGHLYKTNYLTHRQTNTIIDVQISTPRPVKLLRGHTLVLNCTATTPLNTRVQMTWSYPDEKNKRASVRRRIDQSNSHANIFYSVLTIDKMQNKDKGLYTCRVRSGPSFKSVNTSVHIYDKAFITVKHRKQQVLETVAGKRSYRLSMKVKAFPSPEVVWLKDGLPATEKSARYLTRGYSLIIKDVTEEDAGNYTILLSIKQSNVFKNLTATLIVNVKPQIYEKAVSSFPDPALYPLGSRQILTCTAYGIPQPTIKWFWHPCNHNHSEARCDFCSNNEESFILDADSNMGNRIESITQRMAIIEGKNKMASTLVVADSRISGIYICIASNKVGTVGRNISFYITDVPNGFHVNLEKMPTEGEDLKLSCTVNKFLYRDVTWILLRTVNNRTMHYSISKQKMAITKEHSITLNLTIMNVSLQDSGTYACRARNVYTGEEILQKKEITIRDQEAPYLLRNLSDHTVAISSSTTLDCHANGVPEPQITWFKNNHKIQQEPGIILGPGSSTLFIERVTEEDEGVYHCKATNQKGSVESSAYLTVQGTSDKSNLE

“Ac-KLTWQELYQLKYKGI-NH2 [QK, proangiogenic peptide of D'Andrea and co-workers]”: the IC50 in assay [1] (displacement of biotinylated VEGF165 from VEGFR1 ECD, previous study, read-out: IC50 (relative inhibitory concentration 50)) is 32 ± 8 µM. Moreover, in assay [1] (percentage of biotinylated VEGF165 displaced by 100 μM peptide on whole extracellular domain (ECD, D1–D7) of VEGFR1, previously described peptides), the “% of Displacement, 100 μM” value is on record as 69 ± 3%.
For Ac-SSEEFARNIAAYN-NH2 [Compound 32], in assay [2], the “% of Displacement, 100 μM” value is 60 ± 1%; the “% of Displacement, 30 μM + EDTA” value came to 55 ± 1%; the “% of Displacement, 30 μM” value is 59 ± 4%; the IC50 turned out to be 30.4 µM.
Regarding Ac-SSEEFARNWAAFN-NH2 [Compound 12], in assay [2], the “% of Displacement, 100 μM” value is reported as 55 ± 1%; the “% of Displacement, 30 μM + EDTA” value was 53 ± 4%; the “% of Displacement, 30 μM” value is 66 ± 1%; the IC50 worked out at 48.6 µM.
Regarding Ac-SSEEFARNWAAIN-NH2 [Compound 29], in assay [2], the “% of Displacement, 100 μM” value is 72 ± 1%; the “% of Displacement, 30 μM + EDTA” value stood at 71 ± 2%; the “% of Displacement, 30 μM” value came out at 60 ± 3%; the IC50 was 0.046 µM.
Ac-SSEEWARNFAAFN-NH2 [Compound 10]: in assay [2], the “% of Displacement, 100 μM” value is listed as 55 ± 1%; the “% of Displacement, 30 μM + EDTA” value is on record as 55 ± 4%; the “% of Displacement, 30 μM” value is recorded as 64 ± 3%; the IC50 amounted to 14.5 µM.
Consider Ac-SSEEWARNYAAFN-NH2 [Compound 16], for which, in assay [2], the “% of Displacement, 100 μM” value is recorded as 62 ± 1%; the “% of Displacement, 30 μM + EDTA” value is listed as 44 ± 5%; the “% of Displacement, 30 μM” value is 71 ± 2%; the IC50 came to 21.3 µM.
As to Ac-SSEEYARNWAAFN-NH2 [Compound 14], in assay [2], the “% of Displacement, 100 μM” value came out at 58 ± 1%; the “% of Displacement, 30 μM + EDTA” value was found to be 56 ± 6%; the “% of Displacement, 30 μM” value turned out to be 62 ± 4%; the IC50 stood at 14 µM.
Turning to Ac-SSEEYARNWAAWN-NH2 [Compound 8], in assay [2], the “% of Displacement, 100 μM” value is 63 ± 2%; the “% of Displacement, 30 μM + EDTA” value was determined as 40 ± 7%; the “% of Displacement, 30 μM” value came out at 63 ± 1%; the IC50 stood at 25.6 µM.
